Source: patent publication US20060165687A1, “Vaccine adjuvant” (DUKE UNIVERSITY, priority 2004, published 2006)

Tests used:
[1] = test system: Foxp3+, CD25+, CD4+ T-regulatory cells; assay: T-regulatory recovery after depletion and treatment with TLR-ligands; settings: for effect on thymopoeisis (suggested by day 10 spike in percent thymic T-reg): after T-regulatory depletion; for induction of T-regulatory recovery in the thymus and spleen: conclusion
[2] = test system: T regulatory phenotype cells; design: species or system non-human primate; settings: in vivo

Row | Molecule | effect on thymopoeisis (suggested by day 10 spike in percent thymic T-reg) [1] | induction of T-regulatory recovery in the thymus and spleen [1] | T-regulatory recovery in the thymus ([1]; day 10, summary) | percent Foxp3+, CD25+, CD4+ splenocytes versus untreated mice ([1]; day 17, T-reg depleted mice) | T-regulatory recovery in the spleen ([1]; day 17, summary) | percent Foxp3+, CD25+, CD4+ splenocytes versus untreated mice ([1]; day 10, T-reg depleted mice) | T-regulatory recovery in the spleen ([1]; day 10, summary) | T-reg recovery in the thymus ([1]; day 17, summary) | time of maximum depletion of % and number of T regulatory phenotype cells [2] [weeks] | time until which depletion lasted [2] [weeks]
1 | C=CCn1c(=O)n([C@@H]2O[C@H](CO)[C@@H](O)[C@H]2O)c2nc(N)[nH]c(=O)c21 [TLR-7 ligand, loxoribine] | have an effect on thymopoeisis | able to induce T-regulatory recovery | accelerated | significantly increased levels | accelerated |  |  |  |  | 
2 | Poly (I:C) [TLR-3 ligand] | have an effect on thymopoeisis | able to induce T-regulatory recovery |  | significantly increased levels | accelerated | significantly higher levels | accelerated | greater |  | 
3 | flagellin [TLR-5 ligand] | no effect |  |  |  |  |  |  |  |  | 
4 | daclizumab (antibody, chains of the INN, looked up, V domains shown) VH: QVQLVQSGAEVKKPGSSVKVSCKASGYTFTSYRMHWVRQAPGQGLEWIGYINPSTGYTEYNQKFKDKATITADESTNTAYMELSSLRSEDTAVYYCARGGGVFDYWGQGTLVTVSS VL: DIQMTQSPSTLSASVGDRVTITCSASSSISYMHWYQQKPGKAPKLLIYTTSNLASGVPARFSGSGSGTEFTLTISSLQPDDFATYYCHQRSTYPLTFGQGTKVEVK |  |  |  |  |  |  |  |  | 2 | 4
